Experimental data published in patent publication US20040131581A1, “Novel synergistic antimicrobial compositions and methods” (SureCide Technologies, LLC, priority 2001, published 2004).
Entries after “also recorded” stand apart in the source; their conditions may differ. Structures can show the parent of a compound that is named as a salt.

Experiments:
[1] = tested on: Salmonella choleraesuis (strain 10708); test: Growth of Salmonella in nutrient broth containing treated rice-hull litter, visual examination; type: cell-based; details: for Growth of Salmonella in the Presence of an Iodophore: Example 7, 7 g litter treated 30 minutes, 0.5 g litter, 24 hrs at 37° C.; for Growth of Salmonella upon litter treated with one or more treatment composition components: Example 4, 7 g litter treated, Tables 5A, 5B, 5C; for Growth of Salmonella upon litter treated with various concentrations of treatment composition: Example 6, litter of Example 4 re-tested, 24 hours at 37° C.
Description: . After exposing the litter to the antimicrobial composition, the preparations were filtered and the impregnated litter filtrates were dried and placed in separate culture tubes. Sterile nutrient broth (NB) was added to each tube and appropriate tubes were inoculated with 10^3 cfu/mL of Salmonella. All tubes were incubated overnight and examined visually. Visual interpretation results were confirmed by subculturing all culture tubes to plated media. […]
After soaking, the test preparations were removed from the litter material by vacuum filtration. The wet litter was spread on paper towels and allowed to dry between about 5 hours and overnight, followed by approximately 45 minutes exposure to desiccant.
Each of the treated litter samples was tested in triplicate for the ability to reduce or inhibit growth of an inoculated Salmonella culture. Three aliquots of litter (0.5 g each) from each of the four batches of treated litter (FeCl3/citrate, chitosan, FeCl3/citrate/chitosan, and water) were measured and placed in test tubes, to which 18 mL of microbial nutrient broth (Hardy Diagnostics, Santa Maria Calif.) was added. Control test tubes containing untreated litter (e) and no litter (f) were also prepared.
The tubes containing the treated litter were inoculated with 2 mL of a 10^4 cells/mL stock Salmonella solution (final concentration of 10^3 cells/mL). The inoculated tubes were incubated at 37° C. for 24 hours, then visually examined for positive cell growth. In addition, a sample from each test tube was subcultured onto nutrient and MacConkey agar.

[2] = pH of the litter-containing nutrient broth after incubation; type: physicochemical; details: for pH: Example 6, tube solution after 24 hours at 37° C.; for pH of the growth media after incubation in the presence of litter: Example 4
Description: Two extra tubes were used for positive growth (cells only) and negative growth (no cells) growth controls. 18 ml of NB was added to each tube, and […]. The tubes were incubated for 24 hours at 37° C., after which the pH was measured and the number of tubes for each treatment showing signs of bacterial growth were counted.

Compound | Growth of Salmonella in the Presence of an Iodophore [1] | Growth of Salmonella upon litter treated with one or more treatment composition components [1] | Growth of Salmonella upon litter treated with various concentrations of treatment composition [1] | pH [2] | pH of the growth media after incubation in the presence of litter [2] | Growth of Salmonella upon litter treated with one or more treatment composition components ([1]; listed as acetic acid)
povidone-iodine complex [.25% PIC] | Growth |  |  |  |  | 
povidone-iodine complex [0.1% PIC] | ineffective |  |  |  |  | 
O=C(O)CC(O)(CC(=O)O)C(=O)O [50 mM citrate] |  | Growth | Growth | pH 6.4 |  | 
Cl [HCl] |  | completely ineffective; also recorded: Growth |  |  | ~6 | 
CC(=O)O [Acetic Acid] |  | Growth |  |  | ~6 | completely ineffective
[Cl][Fe]([Cl])[Cl] [50 mM Fe, FeCl3] |  | Growth | Growth | pH 6.3 |  | 
